# Measurements as given in patent US8815857B2 (Boehringer Ingelheim International GmbH, priority 2011, dated 2014).
# Tests used:
# [1] = Assessment of solubility: HT solubility in pION buffer, UV spectrophotometry; details: for solubility: kinetic from dmso stock
# [2] = target: T1, human soluble guanylate cyclase alpha 1 and beta 1 subunits (sGC) stably expressed in Chinese hamster ovary cells (Homo sapiens, UniProt Q02108+Q02153); test: sGC cellular activator assay: cGMP in CHO cells expressing human sGC, preincubated with ODQ; assay type: cell-based; details: 40 microM ODQ preincubation, 30 min at room temperature, presence or absence of 50% human serum not given, read-out: EC50 nM, Activity of Compounds in Cellular Assay
# T1 construct: expressed in transfected cells; host or cells: Chinese hamster ovary cells, stably transfected
# T1 sequence (Q02108 1-690 partner): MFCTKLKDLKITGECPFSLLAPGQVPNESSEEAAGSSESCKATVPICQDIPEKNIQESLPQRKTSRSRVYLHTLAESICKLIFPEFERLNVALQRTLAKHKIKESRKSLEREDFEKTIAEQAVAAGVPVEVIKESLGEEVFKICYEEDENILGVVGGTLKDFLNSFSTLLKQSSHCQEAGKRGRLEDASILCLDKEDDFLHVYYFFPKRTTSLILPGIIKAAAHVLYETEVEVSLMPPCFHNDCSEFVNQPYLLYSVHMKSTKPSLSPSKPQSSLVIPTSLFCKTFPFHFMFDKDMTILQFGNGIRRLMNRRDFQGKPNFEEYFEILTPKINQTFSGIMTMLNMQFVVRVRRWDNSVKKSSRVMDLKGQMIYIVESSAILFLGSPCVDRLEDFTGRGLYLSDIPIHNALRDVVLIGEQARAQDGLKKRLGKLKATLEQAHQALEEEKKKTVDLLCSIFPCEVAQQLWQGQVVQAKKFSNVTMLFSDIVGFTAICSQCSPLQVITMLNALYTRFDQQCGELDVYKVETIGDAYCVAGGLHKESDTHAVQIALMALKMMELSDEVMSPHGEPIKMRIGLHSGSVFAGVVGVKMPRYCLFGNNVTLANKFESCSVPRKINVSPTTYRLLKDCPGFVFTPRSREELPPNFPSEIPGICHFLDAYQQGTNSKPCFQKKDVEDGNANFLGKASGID
# T1 sequence (Q02153 1-619): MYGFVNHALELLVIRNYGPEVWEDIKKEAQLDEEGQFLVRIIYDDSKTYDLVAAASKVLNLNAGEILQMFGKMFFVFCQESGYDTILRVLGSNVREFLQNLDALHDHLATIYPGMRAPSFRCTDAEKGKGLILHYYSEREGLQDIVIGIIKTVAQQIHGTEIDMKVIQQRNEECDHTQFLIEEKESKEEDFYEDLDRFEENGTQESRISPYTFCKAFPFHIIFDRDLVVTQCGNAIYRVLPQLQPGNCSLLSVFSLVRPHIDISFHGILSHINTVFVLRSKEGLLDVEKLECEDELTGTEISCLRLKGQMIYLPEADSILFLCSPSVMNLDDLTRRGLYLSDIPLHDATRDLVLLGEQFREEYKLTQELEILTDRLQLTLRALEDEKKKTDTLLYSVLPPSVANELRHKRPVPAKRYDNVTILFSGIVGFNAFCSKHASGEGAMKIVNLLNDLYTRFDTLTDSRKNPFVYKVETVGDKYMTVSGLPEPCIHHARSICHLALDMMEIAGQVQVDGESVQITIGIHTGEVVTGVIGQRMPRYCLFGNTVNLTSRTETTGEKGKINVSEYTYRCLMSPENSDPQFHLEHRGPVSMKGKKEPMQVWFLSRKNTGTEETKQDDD
# How it was run: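 EC50 values derive from HTRF cGMP measurement after test compounds act for thirty minutes at room temperature, with or without 50% human serum. Before dosing, the sGC-transfected CHO cells spend one hour with the inhibitor ODQ (40 microM) in IBMX- and 0.1% BSA-containing buffer.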
# [3] = pH 6.8, aqueous buffer, Solubility (pH 6.8), pH 6.8
# [4] = pION system solution buffer, pH 4.5, pH 4.5, aqueous buffer, Solubility (pH 4.5), pH 4.5 buffer, 16-19 h incubation, 1.0% DMSO
# [5] = pION system solution buffer, pH 7.4, pH 7.4, aqueous buffer, Solubility (pH 7.4), pH 7.4 buffer, 16-19 h incubation, 1.0% DMSO
SMILES,"solubility [1, 3] [µg/mL]","solubility [1, 4] [µg/mL]",EC50 [2] [nM],"Solubility (pH 4.5) ([1]; pH 4.5 buffer, 16-19 h incubation, 1.0% DMSO) [μg/mL]","solubility [1, 5] [µg/mL]"
Cc1ccc(OCc2ccc(C(=O)N(C)Cc3nccn3C)cc2C)c(-c2csc(N3C[C@H]4CC[C@@H](C3)[C@H]4C(=O)O)n2)c1 [Compound 339],48,32,41,–,–
Cc1ccc(OCc2ccc(C(=O)N3C[C@H]4CC[C@@H](C3)O4)cc2C)c(-c2csc(N3C[C@H]4CC[C@@H](C3)[C@H]4C(=O)O)n2)c1 [Compound 340],0.26,< 0.1,19,–,–
Cc1ccc(OCc2ccc(C(=O)N3CC[C@@H](O)C3)cc2C)c(-c2csc(N3C[C@H]4CC[C@@H](C3)[C@H]4C(=O)O)n2)c1 [Compound 341],63,1.1,110,–,–
Cc1ccc(OCc2ccc(C(=O)N(C)CC3(CO)CC3)cc2C)c(-c2csc(N3C[C@H]4CC[C@@H](C3)[C@H]4C(=O)O)n2)c1 [Compound 342],55,< 0.1,110,–,–
Cc1ccc(OCc2ccc(C(=O)N(C)Cc3ccn(C)n3)cc2C)c(-c2csc(N3C[C@H]4CC[C@@H](C3)[C@H]4C(=O)O)n2)c1 [Compound 343],52,< 0.1,46,–,–
COCCN(C)C(=O)c1ccc(COc2ccc(C)cc2-c2csc(N3C[C@H]4CC[C@@H](C3)[C@H]4C(=O)O)n2)c(C)c1 [Compound 344],61,–,23,0.1,> 58
Cc1ccc(OCc2ccc(C(=O)N(C)CC(=O)N(C)C)cc2C)c(-c2csc(N3C[C@H]4CC[C@@H](C3)[C@H]4C(=O)O)n2)c1 [Compound 345],66,4,130,–,> 58
Cc1ccc(OCc2ccc(C(=O)N(C)CC(C)(C)CO)cc2C)c(-c2csc(N3C[C@H]4CC[C@@H](C3)[C@H]4C(=O)O)n2)c1 [Compound 346],36,0.46,67,–,> 54
CNC(=O)CN(C)C(=O)c1ccc(COc2ccc(C)cc2-c2csc(N3C[C@H]4CC[C@@H](C3)[C@H]4C(=O)O)n2)c(C)c1 [Compound 347],70,5.8,260,–,> 53
Cc1ccc(OCc2ccc(C(=O)N(C)CCC(C)(C)O)cc2C)c(-c2csc(N3C[C@H]4CC[C@@H](C3)[C@H]4C(=O)O)n2)c1 [Compound 348],71,0.27,41,–,37
Cc1ccc(OCc2ccc(C(=O)N3CCN(C)C(=O)C3)cc2C)c(-c2csc(N3CCC(C(=O)O)CC3)n2)c1 [Compound 349],69,6.5,40,–,–
Cc1ccc(OCc2ccc(CN(C)[C@@H]3CCS(=O)(=O)C3)cc2C)c(-c2csc(N3C[C@H]4CC[C@@H](C3)[C@H]4C(=O)O)n2)c1 [Compound 351],1.3,0.21,10,–,–
Cc1ccc(OCc2ccc(CN3CCN(C)C(=O)C3)cc2C#N)c(-c2csc(N3C[C@H]4CC[C@@H](C3)[C@H]4C(=O)O)n2)c1 [Compound 354],57,0.42,3.8,–,–
Cc1ccc(OCc2ccc(CN3CCOC(C#N)C3)cc2C#N)c(-c2csc(N3C[C@H]4CC[C@@H](C3)[C@H]4C(=O)O)n2)c1 (some centres unmarked) [Compound 355],7,0.77,9.2,–,–
Cc1ccc(OCc2ccc(CN3C[C@@H](C)O[C@@H](C)C3)cc2C#N)c(-c2csc(N3C[C@H]4CC[C@@H](C3)[C@H]4C(=O)O)n2)c1 [Compound 356],1.6,2.7,24,–,–
Cc1ccc(OCc2ccc(CN3CCO[C@H](C)C3)cc2C#N)c(-c2csc(N3C[C@H]4CC[C@@H](C3)[C@H]4C(=O)O)n2)c1 [Compound 357],11,2.3,24,–,–
